# Reference: patent US4520031A, “Method for reducing toxic effects of methyl-glyoxal bis-guanylhydrazone” (priority 1982, dated 1985)
# Experiment: Solubility of MGBG salts
# Type: physicochemical
# From the text: It is necessary to administer MGBG in a salt form to assure solubility of drug in the administration of fluid such as 5% (w/v) dextrose in water. […] Available MGBG-salt complexes include but are not limited to the dihydrochloride (NSC-32946) and the diacetate (NSC-30689).
smiles,measurement,value
CC(C=NNC(=N)N)=NNC(=N)N,solubility relative to dihydrochloride or diacetate salts,not as soluble as the dihydrochloride or diacetate salts
